Consider two substances from patent US20260365696A1, “INHIBITORS OF PTP1B / NCK1 INTERACTION AND METHODS OF MAKING AND USING SAME” (Radella Pharmaceuticals LLC, priority 2023, published 2026).

Where only a bound is given, the exact number is not on record here.

One experiment has as its target T1, SH3-2 domain of NCK1 (Homo sapiens, UniProt P16333).
T1 construct: To amplify the NCK1 SH3-2 domain, the primers; 10xHis tag with TEV site (vector pSF-OXB20-NH2-10HIS) (N, cleaved yes); made in house; host or cells: E. coli C43(DE3)
The experiment can be described thus: Isothermal titration calorimetry (ITC) binding to NCK1 SH3-2 domain. The gist of the method:
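Measured at 25 °C, pH 8.0 (10 mM sodium buffer, sodium chloride), by calorimetric titration of 3-7.5 mM peptide into 0.125-0.3 mM recombinant NCK1 SH3-2 domain with His tag removed, using 20 injections. Affinities are means of three experiments, fitted with stoichiometry 0.8-1.2.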
On the technique in general: ITC needs no label: the signal is the heat of the interaction.

For the next experiment, the system named is G6Pase. The experiment in a line: G6Pase gene expression in liver of LDLR−/− mice (qPCR). The conditions noted are these: 30 mg/kg IP daily, vs control. Format: in vivo, mouse. On the procedure:
FIGS. 30A-30E are graphs showing expression of various genes in tissues of HFD-fed LDLR−/− mice following 6 weeks of daily IP administration of MD20 (30 mg/kg) or a vehicle control. Mice were fasted for 5 hours at the conclusion of the experiment, liver and white adipose tissue (“WAT”) samples were collected, and gene expression was measured by qRT-PCR. Expression of glucose transporter 4 (GLUT4; FIG. 30A) and stearoyl-CoA-desaturase 1 (SCD1; FIG. 30B) was measured in adipose tissue, and expression of Glucose-6-phosphatase (G6P; FIG. 30C), Activating Transcription Factor 4 (ATF4; FIG. 30D), and 3-hydroxy-3-methylglutaryl (HMGCS; FIG. 30E) was measured in liver tissue. Data represent mean±SEM; statistical differences were determined using two tailed student's t-test.
Gene expression analyses: Livers and adipose tissue were collected from 5 h-fasted animals and snap-frozen in liquid nitrogen. RNA was isolated from frozen liver tissue using TRIzole (Sigma, UK) and cDNA was synthesized from 1 μg RNA using bioscript cDNA synthesis kit (Bioline, UK), oligo (dT) 18 (SEQ ID NO: 170), and random hexamer primers.
Genes of interest were amplified by quantitative PCR (qPCR) using gene-specific primers and GoTaq qPCR master mix (Promega, Madison, WI, USA).

What is called Kd is the concentration at which binding is half-saturated. Low readings indicate tighter binding, high ones weaker binding. With Ac-PPPEHIPPPPRPPKR-NH2 [MD17], on SH3-2 domain of NCK1 (Alanine scanning of the MD17 15-mer peptide, ITC, 25 °C, pH 8.0), the Kd was ≤ 300 µM.
For Ac-PRPPKR-NH2 [MD20, Ac-PRPPKR-NH2], the “G6Pase gene expression in liver” value with G6Pase is recorded as “decreased”. Further, the Kd at SH3-2 domain of NCK1 (Alanine scanning of the MD20 6-mer peptide, ITC, 25 °C, pH 8.0) is ≤ 300 µM; on SH3-2 domain of NCK1 (Peptide truncation analysis, ITC, 25 °C, pH 8.0), ≤ 300 µM; at SH3-2 domain of NCK1 (ability to bind SH3-2 domain of NCK1, stated in text) it was < 193 µM.
